Test results from patent US10208037B2, “Toll-like receptor-7 and -8 modulatory 1H imidazoquinoline derived compounds” (The University of Kansas, priority 2011, dated 2019).

Molecular target: T1, TLR7 (Homo sapiens, UniProt Q9NYK1)
T1 construct: expressed in transfected cells; host or cells: HEK293 (HEK-Blue-7 cells)
T1 sequence (Q9NYK1 27-1049): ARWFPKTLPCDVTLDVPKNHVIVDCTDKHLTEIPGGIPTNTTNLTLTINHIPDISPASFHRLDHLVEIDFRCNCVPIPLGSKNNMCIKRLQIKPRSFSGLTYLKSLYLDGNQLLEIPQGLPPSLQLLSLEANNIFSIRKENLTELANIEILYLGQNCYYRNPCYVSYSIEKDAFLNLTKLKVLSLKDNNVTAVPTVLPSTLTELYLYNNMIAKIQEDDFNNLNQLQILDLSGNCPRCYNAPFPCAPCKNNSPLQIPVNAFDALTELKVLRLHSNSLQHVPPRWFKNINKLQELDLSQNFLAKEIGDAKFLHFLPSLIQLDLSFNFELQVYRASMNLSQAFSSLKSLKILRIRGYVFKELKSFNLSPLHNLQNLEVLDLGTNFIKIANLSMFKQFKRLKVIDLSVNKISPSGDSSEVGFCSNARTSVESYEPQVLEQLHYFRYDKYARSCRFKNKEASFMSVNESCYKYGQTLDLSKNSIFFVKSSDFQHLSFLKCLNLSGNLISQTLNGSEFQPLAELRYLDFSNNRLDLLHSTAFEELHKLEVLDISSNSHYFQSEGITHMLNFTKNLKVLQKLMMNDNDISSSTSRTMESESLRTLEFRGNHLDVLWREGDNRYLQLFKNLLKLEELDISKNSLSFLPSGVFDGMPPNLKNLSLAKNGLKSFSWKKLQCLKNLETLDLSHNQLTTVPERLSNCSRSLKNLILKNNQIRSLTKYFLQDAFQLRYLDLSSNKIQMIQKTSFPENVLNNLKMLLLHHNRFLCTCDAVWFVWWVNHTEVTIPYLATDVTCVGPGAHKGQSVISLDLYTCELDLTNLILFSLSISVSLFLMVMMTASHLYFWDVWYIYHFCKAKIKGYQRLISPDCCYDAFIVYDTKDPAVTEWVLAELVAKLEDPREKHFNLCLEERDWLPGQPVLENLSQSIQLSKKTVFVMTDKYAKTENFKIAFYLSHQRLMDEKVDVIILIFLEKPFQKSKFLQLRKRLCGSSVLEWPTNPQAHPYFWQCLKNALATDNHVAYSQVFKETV
Test: TLR7 reporter gene assay (NF-κB induction, HEK-Blue-7 cells), agonism
Assay type: cell-based
Conditions: not given
Source text: NF-κB induction: The induction of NF-κB was quantified using HEK-Blue-7 cells and HEK-Blue-8 cells as previously described by us.^8,24 HEK293 cells were stably transfected with human TLR7 (or human TLR8), MD2, and secreted alkaline phosphatase (sAP), and were maintained in HEK-Blue™ Selection medium containing zeocin and normocin. Stable expression of secreted alkaline phosphatase (sAP) under control of NF-κB/AP-1 promoters is inducible by the TLR7 (or TLR8) agonists, and extracellular sAP in the supernatant is proportional to NF-κB induction. HEK-Blue cells were incubated at a density of […] in a volume of 80 μL/well, in 384-well, flat-bottomed, cell culture-treated microtiter plates until confluency was achieved, and subsequently graded concentrations of stimuli. sAP was assayed spectrophotometrically using an alkaline phosphatase-specific chromogen (present in HEK-detection medium as supplied by the vendor) at 620 nm.
The induction of NF-κB was quantified using HEK-Blue-3, HEK-Blue-7 and HEK-Blue-8 cells as previously described by us.^8,24,51 HEK293 cells were stably transfected with human TLR3 (or human TLR7 or human TLR8), MD2, and secreted alkaline phosphatase (sAP), and were maintained in HEK-Blue™ Selection medium containing zeocin and normocin. Stable expression of secreted alkaline phosphatase (sAP) under control of NF-κB/AP-1 promoters is inducible by the TLR3 (or TLR7 or TLR8) agonists, and extracellular sAP in the supernatant is proportional to NF-κB induction. HEK-Blue cells were incubated at a density of ˜10^5 cells/ml in a volume of 80 μl/well, in 384-well, flat-bottomed, cell culture-treated microtiter plates until confluency was achieved, and subsequently graded concentrations of stimuli. sAP was assayed spectrophotometrically using an alkaline phosphatase-specific chromogen (present in HEK-detection medium as supplied by the vendor) at 620 nm.

TLR7-agonistic activity (in words)	Structure (SMILES)
retain TLR7 agonistic activity	CCCCc1nc2c(N)nc3ccccc3c2n1Cc1ccc(CNC(=S)Nc2ccc(-c3c4ccc(=[N+](CC)CC)cc-4oc4cc(N(CC)CC)ccc34)c(C(=O)O)c2)cc1 [Compound 27, N-(9-(4-(3-(4-((4-amino-2-butyl-1H-imidazo[4,5-c]quinolin-1-yl)methyl)benzyl)thioureido)-2-carboxyphenyl)-6-(diethylamino)-3H-xanthen-3-ylidene)-N-ethylethanaminium]
inactive	CCCCc1nc2c(N)nc3ccccc3c2n1Cc1cccc2ccccc12 [Compound 6a]
retain TLR7 agonistic activity	CCCCc1nc2c(N)nc3ccccc3c2n1Cc1ccc(CNC(=S)Nc2cccc(-c3c4ccc(=O)cc-4oc4cc(O)ccc34)c2C(=O)O)cc1 [Compound 26, 2-(3-(4-((4-Amino-2-butyl-1H-imidazo [4,5-c]quinolin-1-yl)methyl)benzyl)thioureido)-6-(6-hydroxy-3-oxo-3H-xanthen-9-yl)benzoic Acid]

Same assay, conditions: Table 1; ND = not detected; read-out: TLR7 Agonism

EC50	Structure (SMILES)
1420 nM	CCCCc1nc2c(NCCCCCCCCCCCCNc3nc4ccccc4c4c3nc(CCCC)n4Cc3ccccc3)nc3ccccc3c2n1Cc1ccccc1 [Compound 51d, N^1,N^12-bis(1-benzyl-2-butyl-1H-imidazo[4,5-c]quinolin-4-yl)dodecane-1,12-diamine]
7240 nM	CCCCc1nc2c(N)nc3ccc(NC(=O)CCCCC(=O)Nc4ccc5nc(N)c6nc(CCCC)n(Cc7ccc(CN)cc7)c6c5c4)cc3c2n1Cc1ccc(CN)cc1 [Compound 55a, N^1,N^6-bis(4-amino-1-(4-(aminomethyl)benzyl)-2-butyl-1H-imidazo[4,5-c]quinolin-8-yl) adipamide]
4020 nM	CCCCc1nc2c(N)nc3ccc(NC(=O)CCCCCCC(=O)Nc4ccc5nc(N)c6nc(CCCC)n(Cc7ccc(CN)cc7)c6c5c4)cc3c2n1Cc1ccc(CN)cc1 [Compound 55b, N^1,N^8-bis(4-amino-1-(4-(aminomethyl)benzyl)-2-butyl-1H-imidazo[4,5-c]quinolin-8-yl)octanediamide]
110 nM	CCCCc1nc2c(N)nc3ccccc3c2n1Cc1ccc(CNC(=O)CCCCC(=O)NCc2ccc(Cn3c(CCCC)nc4c(N)nc5ccccc5c43)cc2)cc1 [Compound 52a, N^1,N^6-bis(4-((4-amino-2-butyl-1H-imidazo[4,5-c]quinolin-1-yl)methyl)benzyl)adipamide]
2050 nM	CCCCc1nc2c(NCCCCNc3nc4ccccc4c4c3nc(CCCC)n4Cc3ccccc3)nc3ccccc3c2n1Cc1ccccc1 [Compound 51a, N^1,N^4-bis(1-benzyl-2-butyl-1H-imidazo[4,5-c]quinolin-4-yl)butane-1,4-diamine]
3000 nM	CCCCc1nc2c(NCCCCCCCCCCNc3nc4ccccc4c4c3nc(CCCC)n4Cc3ccccc3)nc3ccccc3c2n1Cc1ccccc1 [Compound 51c, N^1,N^10-bis(1-benzyl-2-butyl-1H-imidazo[4,5-c]quinolin-4-yl)decane-1,10-diamine]
450 nM	CCCCc1nc2c(N)nc3ccc(N)cc3c2n1Cc1ccc(CN)cc1 [Compound 54a, 1-(4-(aminomethyl)benzyl)-2-butyl-1H-imidazo[4,5-c]quinoline-4,8-diamine]
240 nM	CCCCc1nc2c(N)nc3ccccc3c2n1Cc1ccc(CNC(=O)CCCCCCC(=O)NCc2ccc(Cn3c(CCCC)nc4c(N)nc5ccccc5c43)cc2)cc1 [Compound 52b, N^1,N-bis(4-((4-amino-2-butyl-1H-imidazo[4,5-c]quinolin-1-yl)methyl)benzyl)octanediamide]
560 nM	CCCCc1nc2c(N)nc3ccc([N+](=O)[O-])cc3c2n1Cc1ccc(CN)cc1 [Compound 53a, 1-(4-(aminomethyl)benzyl)-2-butyl-8-nitro-1H-imidazo[4,5-c]quinolin-4-amine]

Structure (SMILES)	EC50
CCCCc1nc2c(NCCCCCCCCNc3nc4ccccc4c4c3nc(CCCC)n4Cc3ccccc3)nc3ccccc3c2n1Cc1ccccc1 [Compound 51b, N^1,N-bis(1-benzyl-2-butyl-1H-imidazo[4,5-c]quinolin-4-yl)octane-1,8-diamine]	560 nM

Same assay, conditions: read-out: EC50 (agonistic activity)

EC50	Structure (SMILES)
396 nM	CCCCc1nc2c(N)nc3ccccc3c2n1Cc1ccc(-c2ccccc2)cc1 [Compound 6b, 1-(Biphenyl-4-ylmethyl)-2-butyl-1H-imidazo[4,5-c]quinolin-4-amine]
2200 nM	CCCCc1nc2c(N)nc3ccccc3c2n1Cc1ccc(CNC(=O)CCN2C(=O)CC(SC[C@@H](NC(=O)CC[C@@H](N)C(=O)OC)C(=O)NCC(=O)OC)C2=O)cc1 (stereo partly drawn) [Compound 30b, (2R)-methyl 2-amino-5-((2S)-3-(1-(3-(4-((4-amino-2-butyl-1H-imidazo[4,5-c]quinolin-1-yl)methyl)benzylamino)-3-oxopropyl)-2,5-dioxopyrrolidin-3-ylthio)-1-(2-methoxy-2-oxoethylamino)-1-oxopropan-2-ylamino)-5-oxopentanoate]
269 nM	CCCCc1nc2c(N)nc3ccccc3c2n1Cc1ccc(CNC(=S)NCC(=O)NCC(=O)NCC(=O)OC)cc1 [Compound 29, Methyl 1-(4-((4-amino-2-butyl-1H-imidazo[4,5-c]quinolin-1-yl)methyl)phenyl)-6,9-dioxo-3-thioxo-2,4,7,10-tetraazadodecan-12-oate]
